Test results as given in patent US11274115B2, “Imidazoquinoline derivatives and their use in therapy” (GLAXOSMITHKLINE BIOLOGICALS SA, priority 2016, dated 2022).
Like-named read-outs stand apart in the source and are kept apart here.

Target: T1, human TLR7 (Homo sapiens, UniProt Q9NYK1)
T1 construct: host or cells: HEK293
T1 sequence (Q9NYK1 27-1049): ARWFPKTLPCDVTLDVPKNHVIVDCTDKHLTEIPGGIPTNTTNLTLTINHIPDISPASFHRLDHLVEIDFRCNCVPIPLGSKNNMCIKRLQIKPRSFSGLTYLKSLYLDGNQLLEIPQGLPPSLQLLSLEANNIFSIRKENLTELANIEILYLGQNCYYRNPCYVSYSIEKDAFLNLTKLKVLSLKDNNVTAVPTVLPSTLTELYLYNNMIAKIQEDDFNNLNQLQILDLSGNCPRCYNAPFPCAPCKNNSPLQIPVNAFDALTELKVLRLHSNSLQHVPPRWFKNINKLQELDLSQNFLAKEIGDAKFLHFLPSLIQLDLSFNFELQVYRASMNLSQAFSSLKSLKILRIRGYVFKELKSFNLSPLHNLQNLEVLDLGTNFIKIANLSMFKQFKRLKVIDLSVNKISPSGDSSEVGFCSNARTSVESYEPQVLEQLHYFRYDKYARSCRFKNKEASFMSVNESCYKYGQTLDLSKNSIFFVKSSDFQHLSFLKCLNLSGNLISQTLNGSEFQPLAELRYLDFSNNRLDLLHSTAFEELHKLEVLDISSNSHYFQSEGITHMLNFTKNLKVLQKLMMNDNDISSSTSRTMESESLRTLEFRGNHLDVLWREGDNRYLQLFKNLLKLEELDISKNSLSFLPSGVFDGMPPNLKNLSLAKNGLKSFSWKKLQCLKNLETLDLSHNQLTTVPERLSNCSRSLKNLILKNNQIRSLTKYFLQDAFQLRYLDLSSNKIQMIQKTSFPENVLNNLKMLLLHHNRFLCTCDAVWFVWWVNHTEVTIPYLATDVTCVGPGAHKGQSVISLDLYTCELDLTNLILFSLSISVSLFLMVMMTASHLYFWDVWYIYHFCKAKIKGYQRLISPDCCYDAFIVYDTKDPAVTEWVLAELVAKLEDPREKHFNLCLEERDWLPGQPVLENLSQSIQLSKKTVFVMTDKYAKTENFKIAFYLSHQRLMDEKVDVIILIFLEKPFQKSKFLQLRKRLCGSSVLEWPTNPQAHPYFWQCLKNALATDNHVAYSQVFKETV
Test: hTLR7 agonist reporter assay in HEK293 cells (NFκB-SEAP)
Type: cell-based
Settings: for EC50: read-out: hTLR7 ED50; for hTLR7/8 ratio: hTLR7 ED50 over hTLR8 ED50
Experimental: Assay for hTLR7 and hTLR8 Agonist Activity in HEK-293 Cells
Determination of TLR agonist activity was performed using the HEK293 […]. This assay measures TLR7 and TLR8 selectivity and potency of the compounds tested. HEK293 cells expressing human TLR7 or TLR8 and NFκB responsive Secreted Embryonic Alkaline Phosphatase (SEAP) reporter gene were obtained from InvivoGen (San Diego, Calif.). These cells were maintained in culture media of Dulbecco's Modified Eagle Medium (DMEM) (Invitrogen, Grand Island, N.Y.), 10% Fetal Bovine Serum (FBS) (Sigma, St. Louis, Mo.) and selection antibiotics (Invitrogen, and Invivogen). HEK293 stably transfected with human TLR7 (hTLR7) or human TLR8 (hTLR8) were stimulated for 24 h with aqueous formulations of test compounds and culture supernatants were analyzed for NFκB activation using the colorimetric SEAP detection kit QuantBlue (InvivoGen).

- selectivity hTLR8/hTLR7, in words (Table 1): notable selectivity for hTLR8/hTLR7
- EC50 (Table 1, FIG. 1, 24 h stimulation, aqueous formulations): 1.06 µM
- hTLR7/8 ratio (Table 1): 11.0
- EC50 (Table 2, FIG. 3, another occasion, * = only very low levels of NFKB activation were detected): 7 µM
- hTLR7/8 ratio (Table 2): 8.9
- hTLR7 agonist activity, in words (Table 3, FIG. 5): agonist of both TLR7 and TLR8
- EC50 (Table 3, FIG. 5, another occasion, * = only very low levels of NFKB activation were detected): 4.1 µM
- hTLR7/8 ratio (Table 3): 6.9
- EC50 (Table 4, FIG. 7, another occasion): 7 µM
- hTLR7/8 ratio (Table 4): 9.9
SMILES: CCCCCCCC/C=C\CCCCCCCC(=O)OC[C@H](COP(=O)(O)OCCOc1ccc2c(c1)nc(N)c1nc(CCCC)n(CCO)c12)OC(=O)CCCCCCC/C=C\CCCCCCCC [Example 1]
- hTLR7 agonist activity, in words (text on Table 1, FIG. 1): significantly more potent as an agonist of hTLR7 and hTLR8 than Comparative Example 2
- hTLR7 agonist activity, in words (text on Table 2, FIG. 3): more active than Comparative Example 2 as an agonist of hTLR7 and hTLR8
